Article PMC12434668 (Journal of Medicinal Chemistry, 2025)
Values after ≈ are worked out from the molar mass of the structure shown. Like-named read-outs stand apart in the source and are kept apart here.

Tests used:
[1] = biological target: T1, Mcl-1 (Homo sapiens, UniProt Q07820); experiment: TR-FRET binding assay (FITC-Bak peptide competition)
T1 construct: Briefly, a previously reported construct was subcloned into an expression vector (pDEST-HisMBP); MBP (from vector pDEST-HisMBP); made in house; host or cells: Escherichia coli BL21 CodonPlus (DE3) RIL
T1 sequence (Q07820 whole entry): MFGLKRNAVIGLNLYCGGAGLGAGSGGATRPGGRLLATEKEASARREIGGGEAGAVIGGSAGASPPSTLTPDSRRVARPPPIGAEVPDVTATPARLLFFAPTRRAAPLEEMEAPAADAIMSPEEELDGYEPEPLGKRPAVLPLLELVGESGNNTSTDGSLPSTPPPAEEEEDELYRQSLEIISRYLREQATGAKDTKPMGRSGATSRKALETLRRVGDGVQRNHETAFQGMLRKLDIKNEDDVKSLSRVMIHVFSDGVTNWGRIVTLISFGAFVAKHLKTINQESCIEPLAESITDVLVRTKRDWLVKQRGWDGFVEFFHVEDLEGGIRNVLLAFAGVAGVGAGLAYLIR
Text: Protein preparation was described previously. Briefly, a previously reported construct was subcloned into an expression vector (pDEST-HisMBP) expressed in Escherichia coli BL21 CodonPlus (DE3) RIL (Stratagene) and purified through nickel-column and size-exclusion chromatography sequentially.
Mixtures containing vehicle without compound served as a negative control, while mixtures containing no protein served as a positive control. […] Two or more repeats were obtained and average K i values are reported.

[2] = test system: NCI-H929 cells; experiment: In vitro proliferation assay (CellTiter-Glo), H929; type: cell-based; settings: Homo sapiens, H929 cell line, average of at least n = 2, triplicate
Protocol: (§1) NCI-H929, A427, and K562 cell lines were obtained from ATCC. NCI-H929 cells were cultured in RPMI1640 (ATCC-formulated, Catalog No. 30-2001) + 10% fetal calf serum (FCS, GIBCO BRL, Cat. No. 26140) + 0.05 mM mercaptoethanol. A-427 cells were cultured in RPMI1640 (ATCC-formulated, Catalog No. 30-2001) + 10% fetal calf serum (FCS, GIBCO BRL, Cat. No. 26140). K562 cell lines were cultured in Iscove’s Modified Dulbecco Medium (Gibco-formulated, purchased from Thermo-Fisher, Cat. No. 12440-053) + 10% fetal bovine serum (FBS, Sigma-Aldrich, F2442). All cell lines were cultured at 37 °C with 5% CO2 in a humidified incubator and have been regularly tested negatively for mycoplasm contamination.
(§2) Cells were seeded at 750–1500 cells per well (depending on growth kinetics) in 384-well plates (Corning, Catalog No. 3707) or at 3000 cells per well in 96-well plates in the respective growth medium and allowed to settle overnight. Suspension cells were plated immediately before compound addition. Adherent cell lines were incubated overnight at 37 °C in a tissue culture incubator prior to compound addition. Compounds were added in triplicates using an HP D300e Digital Dispenser (Hewlett-Packard) or manually at the concentrations indicated and total volumes were normalized using DMSO backfill, with final DMSO concentration of 0.5%. Control wells were treated with DMSO only. Following incubation for 72 or 96 h, a Cell Titer-Glo assay was conducted following the manufacturer recommendations (Promega, G9243) and luminescence was measured using a Victor X5 (PerkinElmer) or a Cytation 3 (Biotek) plate reader. % Viability was defined as relative luminescence units (RLU) of each well divided by the RLU of cells on day 0. Four parameter sigmoidal dose–response curves were generated and IC50 values were determined using XLFit (IDBS) software (eq 205) or in-house software. Drug combination experiments were performed in 96-well or 384-well format and drug synergy was determined using the BLISS model (PMID: 26171228).

[3] = test system: A427 cells; experiment: In vitro proliferation assay (CellTiter-Glo), A427; type: cell-based; settings: Homo sapiens, A-427; A427 cell line; average of at least n = 2, triplicate
Protocol: as §1, §2

[4] = test system: K562 cells; experiment: In vitro proliferation counterscreen, Mcl-1 insensitive K562; type: cell-based; settings: Homo sapiens; Mcl-1 insensitive K562; top concentration tested 12.5 µM
Protocol: NCI-H929, A427, and K562 cell lines were obtained from ATCC.
Suspension cells were plated immediately before compound addition. Adherent cell lines were incubated overnight at 37 °C in a tissue culture incubator prior to compound addition. Compounds were added in triplicates using an HP D300e Digital Dispenser (Hewlett-Packard) or manually at the concentrations indicated and total volumes were normalized using DMSO backfill, with final DMSO concentration of 0.5%. Control wells were treated with DMSO only. Following incubation for 72 or 96 h, a Cell Titer-Glo assay was conducted following the manufacturer recommendations (Promega, G9243) and luminescence was measured using a Victor X5 (PerkinElmer) or a Cytation 3 (Biotek) plate reader. % Viability was defined as relative luminescence units (RLU) of each well divided by the RLU of cells on day 0.

[5] = Mouse pharmacokinetic analyses (i.v. and oral); type: in vivo; settings: plasma; for AUC: dose not printed at this place
Protocol: For PK analysis, mice were administered intravenously or orally with compound formulated in 10% ethanol and 10% Cremophor EL. Compound 13 dosing was also screened with 20% Phosphal IPG, 20% Phosphal MCT, 10% HP-β-CD, and 40% HP-β-CD. Plasma samples were obtained at predefined time points and compound concentrations in plasma were measured by quantitative HPLC–MS/MS using an internal standard. Calibration and quality control samples were prepared using blank plasma from untreated animals. Samples were precipitated with acetonitrile and injected into a HPLC system (Agilent 1200). Separation was performed by gradients of 5 mmol/L ammonium acetate pH 5.0 and acetonitrile with 0.1% formic acid on a Luna C8 reversed-phase column with 2.5 μm particles (Phenomenex). The HPLC was interfaced by ESI operated in positive ionization mode to a triple quadrupole mass spectrometer (6500+ Triple Quad System, SCIEX) operated in multiple reaction monitoring mode. Chromatograms were analyzed with Analyst (SCIEX) and pharmacokinetic parameters were calculated by noncompartmental analysis using proprietary software.

[6] = Kinetic aqueous solubility; type: physicochemical; settings: aqueous medium, pH 6.8
[7] = test system: caspase 3/7 in H929 cells; experiment: Caspase 3/7 induction assay (Caspase-Glo), H929; type: cell-based; settings: compound treatment for 3 h; for EC50: Homo sapiens, NCI-H929
Protocol: (§3) Cells were treated with a 10-point compound titration and incubated at 37 °C for 3 h.

[8] = test system: caspase 3/7 in A427 cells; experiment: Caspase 3/7 induction assay (Caspase-Glo), A427; type: cell-based; settings: compound treatment for 3 h; for EC50: Homo sapiens, A-427
Protocol: as §3

[9] = test system: caspase 3/7 in K562 cells; experiment: Caspase 3/7 induction assay (Caspase-Glo), K562; type: cell-based; settings: compound treatment for 3 h; for EC50: Homo sapiens, K562
Protocol: as §3

[10] = in the presence of 1% fetal bovine serum, average of at least n = 2, read-out: TRFRET, Mcl-1 Ki
[11] = iv, dosed at 20 mg/kg, read-out: i.v. mouse CL
[12] = iv, supplementary CSV, unit not given (Table 1: 20 mg/kg, 14 and 16 at 10 mg/kg), read-out: CL
[13] = supplementary CSV, unit inferred, read-out: Ki TRFRET

Row | Ki [1, 10] [nM] | GI50 [2] [nM] | clearance [5, 11] [mL/min/kg] | clearance [5, 12] [mL/min/kg] | solubility kinetic [6] [µg/mL] | Ki [1, 13] [nM] | EC50 [7] [nM] | EC50 [8] [nM] | EC50 [9] [µM] | AUC ([5]; iv, read-out: AUCIV) [µM·h] | AUC ([5]; oral, read-out: AUCPO) [µM·h] | bioavailability ([5]; po, read-out: oral bioavailability (F)) [%] | SMILES | GI50 [3] [nM] | GI50 [4] [µM] | H929 Caspase 3/7 maximum activity, fold over vehicle (FoV) [7] [fold] | A427 Caspase 3/7 fold over vehicle (FoV) [8] [fold] | K562 Caspase 3/7 fold over vehicle (FoV) [9] [fold]
1 | 0.08 ± 0.01 | 29 ± 6 | 3.5 | 3.5 | 11 (≈ 13.8 µM) |  |  |  |  |  |  |  | COc1cc2c3c(cc(C(=O)O)n3CCCOCc3ccncc3-c3c(Cl)ccc4c(CCCOc5cc(C)c(Cl)c(C)c5)c5n(c34)[C@H](C)CN2C5=O)c1OC [Compound 22, (2^63^4 S a ,1^72^2 R a ,2^4 R)-2^7-Chloro-2^10-(3-(4-chloro-3,5-dimethylphenoxy)propyl)-1^4,1^5-dimethoxy-2^4-methyl-2^1-oxo-2^1,2^2,23,24-tetrahydro-11H-5-oxa-2(2,6)-pyrazino[1,2-a]indola-1(7,1)-indola-3(3,4)-pyridinacyclooctaphane-1^2-carboxylic Acid] | 58 ± 4 | > 12.5 |  |  | 
2 | < 0.08 | 10 ± 3 | 19.8 | 19.8 |  | < 0.02 | 11 | 13 | > 3.12 |  |  |  | COCCOc1cc2c3c(cc(C(=O)O)n3CCCOCc3nn(C)cc3-c3c(Cl)ccc4c(CCCOc5cc(C)c(Cl)c(C)c5)c5n(c34)[C@H](C)CN2C5=O)c1OC [Compound 19, (2^63^4 S a ,1^72^2 R a ,2^4 R)-2^7-Chloro-2^10-(3-(4-chloro-3,5-dimethylphenoxy)propyl)-1^4-methoxy-1^5-(2-methoxyethoxy)-2^4,3^1-dimethyl-2^1-oxo-2^1,2^2,2^3,2^4-tetrahydro-1^1 H,3^1 H-5-oxa-2(2,6)-pyrazino[1,2-a]indola-1(7,1)-indola-3(4,3)-pyrazolacyclooctaphane-1^2-carboxylic Acid] | 18 ± 6 | > 11.2 | 16 | 14 | 1.4
3 | 0.08 ± 0.02 | 31 ± 13 | 8.9 | 8.9 |  |  | 23 | 31 | > 3.12 |  |  |  | COc1c(OCC2CCOCC2)cc2c3c1cc(C(=O)O)n3CCCOCc1nn(C)cc1-c1c(Cl)ccc3c(CCCOc4cc(C)c(Cl)c(C)c4)c4n(c13)[C@H](C)CN2C4=O [Compound 20, (2^63^4 S a ,1^72^2 R a ,2^4 R)-2^7-Chloro-2^10-(3-(4-chloro-3,5-dimethylphenoxy)propyl)-1^4-methoxy-2^4,3^1-dimethyl-2^1-oxo-1^5-((tetrahydro-2H-pyran-4-yl)methoxy)-2^1,2^2,2^3,2^4-tetrahydro-1^1 H,3^1 H-5-oxa-2(2,6)-pyrazino[1,2-a]indola-1(7,1)-indola-3(4,3)-pyrazolacyclooctaphane-1^2-carboxylic Acid] | 55 ± 26 | > 12.5 | 16 | 14 | 1.3
4 | < 0.08 | 35 ± 16 | 14.8 | 14.8 |  | 0.04 | 36 | 28 | > 3.12 |  |  |  | COc1c(C)cc2c3c1cc(C(=O)O)n3CCCOCc1nn(C)cc1-c1c(Cl)ccc3c(CCCOc4cc(C)c(Cl)c(C)c4)c4n(c13)[C@H](C)CN2C4=O [Compound 18, (2^63^4 S a ,1^72^2 R a ,2^4 R)-2^7-Chloro-2^10-(3-(4-chloro-3,5-dimethylphenoxy)propyl)-1^4-methoxy-1^5,2^4,3^1-trimethyl-2^1-oxo-2^1,2^2,2^3,2^4-tetrahydro-1^1 H,3^1 H-5-oxa-2(2,6)-pyrazino [1,2-a]indola-1(7,1)-indola-3(4,3)-pyrazolacyclooctaphane-1^2-carboxylic Acid] | 51 ± 20 | > 12.5 | 17 | 16 | 1.4
5 | < 0.08 | 17 ± 8 | 8 | 8 |  | < 0.02 | 12 | 17 | > 3.12 |  |  |  | COc1cc2c3c(cc(C(=O)O)n3CCCOCc3ncccc3-c3c(Cl)ccc4c(CCCOc5cc(C)c(Cl)c(C)c5)c5n(c34)[C@H](C)CN2C5=O)c1OC [Compound 21, (2^63^4 S a ,1^72^2 R a ,2^4 R)-2^7-Chloro-2^10-(3-(4-chloro-3,5-dimethylphenoxy)propyl)-1^4,1^5-dimethoxy-2^4-methyl-2^1-oxo-2^1,2^2,2^3,2^4-tetrahydro-1^1 H-5-oxa-2(2,6)-pyrazino[1,2-a]indola-1(7,1)-indola-3(3,2)-pyridinacyclooctaphane-1^2-carboxylic Acid] | 39 ± 7 | > 12.5 | 16 | 14 | 1.4
6 | < 0.08 | 39 ± 7 | 6.4 | 6.4 |  | 0.077 | 17 | 24 | > 3.12 | 136 | 14 | 22 | COc1cc2c3c(cc(C(=O)N(C)C)n3CCCOCc3nn(C)cc3-c3c(Cl)ccc4c(CCCOc5cc(C)c(Cl)c(C)c5)c5n(c34)[C@H](C)CN2C5=O)c1OC [Compound 25, (2^63^4 S a ,1^72^2 R a ,2^4 R)-2^7-chloro-2^10-(3-(4-chloro-3,5-dimethylphenoxy)propyl)-1^4,1^5-dimethoxy-N,N,2^4,3^1-tetramethyl-2^1-oxo-2^1,2^2,2^3,2^4-tetrahydro-1^1 H,3^1 H-5-oxa-2(2,6)-pyrazino[1,2-a]indola-1(7,1)-indola-3(4,3)-pyrazolacyclooctaphane-1^2-carboxamide] | 105 ± 24 | > 12.5 | 16 | 14 | 1.4
